Experimental data reported in article PMC3425516 (PLoS ONE, 2012).

Legend:
Assay in all cases: NCI-60 cell lines screening
Type in all cases: cell-based, human
[1] = test system: SK-MEL-5; conditions: SK-MEL-5, Melanoma panel
Description: (§1) The NCI-60 cancer cell lines screening was conducted by the NCI’s Developmental Therapeutics Program (DTP; http://www.dtp.nci.nih.gov/branches/btb/ivclsp.html).

[2] = test system: TK-10; conditions: TK-10, Renal Cancer panel
Description: as §1

[3] = test system: UO-31; conditions: UO-31, Renal Cancer panel
Description: as §1

[4] = test system: U251; conditions: U251, CNS Cancer panel
Description: as §1

[5] = test system: MDA-MB-435; conditions: MDA-MB-435, Melanoma panel
Description: as §1

[6] = test system: SW-620; conditions: SW-620, Colon Cancer panel
Description: as §1

[7] = test system: NCI-H226; conditions: NCI-H226, Non-Small Cell Lung Cancer panel
Description: as §1

[8] = test system: SF-268; conditions: SF-268, CNS Cancer panel
Description: as §1

[9] = test system: SF-295; conditions: SF-295, CNS Cancer panel
Description: as §1

[10] = test system: COLO 205; conditions: COLO 205, Colon Cancer panel
Description: as §1

[11] = test system: OVCAR-8; conditions: OVCAR-8, Ovarian Cancer panel
Description: as §1

[12] = test system: CAKI-1; conditions: CAKI-1, Renal Cancer panel
Description: as §1

[13] = test system: SR; conditions: Leukemia panel
Description: as §1

[14] = test system: KM12; conditions: KM12, Colon Cancer panel
Description: as §1

[15] = test system: OVCAR-5; conditions: OVCAR-5, Ovarian Cancer panel
Description: as §1

[16] = test system: OVCAR-3; conditions: OVCAR-3, Ovarian Cancer panel
Description: as §1

[17] = test system: UACC-257; conditions: UACC-257, Melanoma panel
Description: as §1

[18] = test system: M14; conditions: M14, Melanoma panel
Description: as §1

[19] = test system: NCI-H23; conditions: NCI-H23, Non-Small Cell Lung Cancer panel
Description: as §1

[20] = test system: BT-549; conditions: BT-549, Breast Cancer panel
Description: as §1

[21] = test system: HOP-92; conditions: HOP-92, Non-Small Cell Lung Cancer panel
Description: as §1

[22] = test system: 786-0; conditions: 786-0, Renal Cancer panel
Description: as §1

[23] = test system: ACHN; conditions: Renal Cancer panel
Description: as §1

[24] = test system: NCI-H322M; conditions: Non-Small Cell Lung Cancer panel
Description: as §1

[25] = test system: T-47D; conditions: Breast Cancer panel
Description: as §1

[26] = test system: MDA-MB-468; conditions: MDA-MB-468, Breast Cancer panel
Description: as §1

[27] = test system: OVCAR-4; conditions: OVCAR-4, Ovarian Cancer panel
Description: as §1

[28] = test system: IGROV1; conditions: IGROV1, Ovarian Cancer panel
Description: as §1

[29] = test system: LOX IMVE; conditions: Melanoma panel
Description: as §1

[30] = Homo sapiens, read-out: LC50 (the source's name)

O=C(C=Cc1ccc2c(c1)CCN2S(=O)(=O)c1ccccc1)NO [MPT0E028, 3-(1-benzenesulfonyl-2,3-dihydro-1H-indol-5-yl)-N-hydroxy-acrylamide]
GI50 ([1]; Homo sapiens): 136 nM | CC50 [1, 30]: 705 nM | TGI [1]: 310 nM | GI50 ([2]; Homo sapiens): 103 nM | CC50 [2, 30]: 33600 nM | TGI [2]: 660 nM | GI50 ([3]; Homo sapiens): 169 nM | CC50 [3, 30]: 5630 nM | TGI [3]: 1460 nM | GI50 ([4]; Homo sapiens, U-251): 199 nM | CC50 ([4]; Homo sapiens, U-251, read-out: LC50 (the source's name)): 3760 nM | TGI [4]: 820 nM | GI50 ([5]; Homo sapiens): 146 nM | CC50 [5, 30]: 11300 nM | TGI [5]: 706 nM | GI50 ([6]; Homo sapiens): 147 nM | CC50 [6, 30]: > 100000 nM | TGI [6]: 11200 nM | GI50 ([7]; Homo sapiens): 1240 nM | CC50 [7, 30]: 19000 nM | TGI [7]: 3880 nM | GI50 ([8]; Homo sapiens): 464 nM | CC50 [8, 30]: 70400 nM | TGI [8]: 3400 nM | GI50 ([9]; Homo sapiens): 60.3 nM | CC50 [9, 30]: 2430 nM | TGI [9]: 340 nM | TGI [10]: 264 nM | GI50 ([10]; Homo sapiens): 128 nM | CC50 [10, 30]: 546 nM | GI50 ([11]; Homo sapiens): 121 nM | CC50 [11, 30]: > 100000 nM | TGI [11]: 1750 nM | TGI [12]: 959 nM | GI50 ([12]; Homo sapiens): 218 nM | CC50 [12, 30]: > 100000 nM | GI50 ([13]; Homo sapiens): 60.1 nM | CC50 [13, 30]: > 100000 nM | TGI [13]: >100000 nM | GI50 ([14]; Homo sapiens): 286 nM | CC50 [14, 30]: 5780 nM | TGI [14]: 1490 nM | GI50 ([15]; Homo sapiens): 60.2 nM | CC50 [15, 30]: 2580 nM | TGI [15]: 316 nM | GI50 ([16]; Homo sapiens): 233 nM | CC50 [16, 30]: 7300 nM | TGI [16]: 933 nM | GI50 ([17]; Homo sapiens): 127 nM | CC50 [17, 30]: > 100000 nM | TGI [17]: 1650 nM | GI50 ([18]; Homo sapiens): 179 nM | CC50 [18, 30]: 6450 nM | TGI [18]: 1110 nM | GI50 ([19]; Homo sapiens): 188 nM | CC50 [19, 30]: 3840 nM | TGI [19]: 922 nM | TGI [20]: 5840 nM | GI50 ([20]; Homo sapiens): 680 nM | CC50 [20, 30]: > 100000 nM | TGI [21]: 814 nM | GI50 ([21]; Homo sapiens): 210 nM | CC50 [21, 30]: 18000 nM | TGI [22]: 1330 nM | GI50 ([22]; Homo sapiens): 300 nM | CC50 [22, 30]: 4020 nM | GI50 ([23]; Homo sapiens): 167 nM | CC50 [23, 30]: 4080 nM | TGI [23]: 576 nM | GI50 ([24]; Homo sapiens): 186 nM | CC50 [24, 30]: > 100000 nM | TGI [24]: 11400 nM | TGI [25]: 445 nM | GI50 ([25]; Homo sapiens, T47D): 121 nM | CC50 ([25]; Homo sapiens, T47D, read-out: LC50 (the source's name)): > 100000 nM | GI50 ([26]; Homo sapiens): 196 nM | CC50 [26, 30]: 6310 nM | TGI [26]: 1150 nM | GI50 ([27]; Homo sapiens): 509 nM | CC50 [27, 30]: > 100000 nM | TGI [27]: 31800 nM | GI50 ([28]; Homo sapiens, IGROV-1): 183 nM | CC50 ([28]; Homo sapiens, IGROV-1, read-out: LC50 (the source's name)): 2390 nM | TGI [28]: 533 nM | GI50 ([29]; Homo sapiens): 222 nM | CC50 [29, 30]: 2880 nM | TGI [29]: 718 nM
